The species entered for data set [1] is Danio rerio. Briefly: Hepatotoxicity in zebrafish embryo at 1 to 30 uM incubated until 7 days post fertilization. The conditions noted are these: in vivo, 168 h. The class given is organism-based.
For data set [2], the species on record is Danio rerio. Description: Induction of apoptosis in zebrafish embryo after 24 to 48 hrs by acridine orange staining based fluorescence microscopy. The class given is functional, organism-based.
The species entered for data set [3] is Danio rerio. Briefly: Hepatotoxicity in zebrafish embryo incubated until 7 days post fertilization. The class given is organism-based. The note with it: in vivo, 168 h.
The species entered for data set [4] is Danio rerio. Description: Teratogenicity in zebrafish embryo at 1 to 30 uM incubated until 5 days post fertilization. The class given is ADME, organism-based. The note with it: in vivo, 120 h.
Data set [5] is described as follows: Therapeutic index, ratio of NOAEL to apoptotic EC50 in Zebrafish embryo. The class given is organism-based, Danio rerio. The conditions noted are these: in vivo, read-out: TI.
For data set [6], the species on record is Danio rerio. Description: Induction of apoptosis in zebrafish embryo at 30 uM after 24 to 48 hrs by acridine orange staining based fluorescence microscopy. The class given is functional, organism-based.
The species entered for data set [7] is Danio rerio. Briefly: Teratogenicity in zebrafish embryo incubated until 5 days post fertilization. The conditions noted are these: in vivo, 120 h. The class given is ADME, organism-based.
For data set [8], the species on record is Danio rerio. Briefly: Hepatotoxicity in zebrafish embryo at 10 uM incubated until 7 days post fertilization. The class given is organism-based. The conditions noted are these: in vivo, 168 h.
The species named for data set [9] is Danio rerio. Description: Induction of apoptosis in zebrafish embryo at 1 to 30 uM after 24 to 48 hrs by acridine orange staining based fluorescence microscopy. The class given is functional, organism-based.
For data set [10], the species on record is Danio rerio. Briefly: Teratogenicity in zebrafish embryo at 10 uM incubated until 5 days post fertilization. The conditions noted are these: in vivo, 120 h. The class given is ADME, organism-based.
Data set [11] is filed under the species Danio rerio. Description: Teratogenicity in zebrafish embryo at 30 uM incubated until 5 days post fertilization. The conditions noted are these: in vivo, 120 h. The class given is ADME, organism-based.
For data set [12], the species on record is Danio rerio. Description: Hepatotoxicity in zebrafish embryo assessed as induction of mortality at 30 uM incubated until 7 days post fertilization. The class given is organism-based. The conditions noted are these: in vivo, 168 h.
Data set [13] is filed under the species Danio rerio. Description: Induction of apoptosis in zebrafish embryo at 1 to 3 uM after 24 to 48 hrs by acridine orange staining based fluorescence microscopy. The class given is functional, organism-based.

Active and inactive are the calls of the source. The rule behind the calls is not given here.

As for `Fc1cc(F)cc(-c2cc3nc4ccccc4nc3s2)c1`, the Activity entry in the data set filed under Danio rerio [1] and in the data set filed under Danio rerio [4] was “Non-toxic” throughout. It took 10.3 µM to reach a half-maximal effect in the data set listed under Danio rerio [2] (EC50). For the same compound, the no observed adverse effect level (NOAEL) in the data set listed under Danio rerio [3] and in the data set listed under Danio rerio [7] was 30 µM throughout. Also, in data set [5], the selectivity ratio worked out at 2.9. The outcome in the data set listed under Danio rerio [6] was Active.
Regarding `Fc1cc(F)cc(-c2cc3nccnc3s2)c1`, the Activity result in the data set listed under Danio rerio [1] and in the data set filed under Danio rerio [4] was “Non-toxic” in each case. The same compound displayed an EC50 in the data set listed under Danio rerio [2] of 9.82 µM. In addition, the NOAEL in the data set listed under Danio rerio [3] and in the data set listed under Danio rerio [7] was 30 µM in each case. In data set [5], the selectivity ratio was found to be 3.05. Further, the result in the data set listed under Danio rerio [6] was Active.
Compound `CC(C)(C)c1cc2nc3ccccc3nc2s1` registered an EC50 in the data set filed under Danio rerio [2] of 4.89 µM. Moreover, the Activity result in the data set listed under Danio rerio [8] is “Toxic”; in the data set filed under Danio rerio [9], “Dose-dependent effect”; in the data set listed under Danio rerio [10] it was “Non-toxic”; in the data set filed under Danio rerio [11] it was “Toxic”; in the data set listed under Danio rerio [12], “Toxic”. The values for the NOAEL in the data set listed under Danio rerio [3] and in the data set listed under Danio rerio [7] were 1 µM and 3 µM, respectively. Besides, in [5], the selectivity ratio was 0.2. Besides, in the data set filed under Danio rerio [6], the outcome was Active.
For `c1ccc(-c2cc3nc4ccccc4nc3s2)cc1`, the results for the Activity result in the data set filed under Danio rerio [1] and in the data set filed under Danio rerio [11] were “Non-toxic” and “Toxic”, respectively. The result in the data set filed under Danio rerio [13] and in the data set listed under Danio rerio [6] was Active. The compound further had an EC50 in the data set listed under Danio rerio [2] of 8.5 µM. Besides, the NOAEL in the data set listed under Danio rerio [3] and in the data set filed under Danio rerio [7] was 10 µM each time. Besides, in [5], the selectivity ratio amounted to 1.17.
Regarding `CCCc1cc2nc3ccccc3nc2s1`, the Activity result in the data set filed under Danio rerio [1] is “Non-toxic”; in the data set listed under Danio rerio [4], “Non-toxic”; in the data set filed under Danio rerio [9], “Dose-dependent effect”. For the same compound, a half-maximal effect in the data set listed under Danio rerio [2] (EC50) was put at 4.46 µM. Further, the NOAEL in the data set listed under Danio rerio [3] and in the data set listed under Danio rerio [7] was 30 µM in each case. The selectivity ratio in data set [5] was determined as 6.72. For the same compound, the result in the data set filed under Danio rerio [6] was Active.

The record behind these values is ChEMBL document CHEMBL3351682, “NaSH in the construction of thiophene ring fused with N-heterocycles: a rapid and inexpensive synthesis of novel small molecules as potential inducers of apoptosis” (Bioorg Med Chem Lett, 2014).
